Laboratory results from PubChem BioAssay AID489032 (Sanford-Burnham Center for Chemical Genomics, 2010).
The source made the active and inactive calls. The rule behind the calls is not given here.

Each molecule was assayed on UPR adaptive arm reporter cells, luciferase luminescence (assay: adaptive unfolded protein response reporter activation – cell-based, luciferase luminescence, dose response (AID 489032)).

EC50	Compound
> 80 µM (inactive)	CCOC(=O)c1c(NC(=O)c2cc(-c3ccc(O)cc3)on2)sc(C(C)=O)c1C
22.2 µM (inactive)	Cn1nc(C(F)(F)F)c(/C=N/OC(=O)c2ccccc2Cl)c1SCc1ccccc1Cl
> 80 µM (inactive)	OCCNc1nc(Nc2ccc(Br)cc2)nc2ccccc12
50 µM (inactive)	COc1c(Cl)cc(Cl)cc1/C=N/NC(=O)c1nnn(-c2nonc2N)c1CN1CCC(C)CC1
> 80 µM (inactive)	COc1ccc(-c2sc3ccccc3c2-c2ccc(OCCN(C)C)cc2)cc1
73 µM (inactive)	COc1ccc(CNC(=O)/C(C#N)=C/c2cccc(OC)c2OC)cc1
> 80 µM (inactive)	O=C(Nc1ccc(Cl)cc1)Nc1ccccc1Sc1ncc([N+](=O)[O-])s1
> 80 µM (inactive)	CCOC(=S)SCC(=O)Nc1nc(-c2ccc(Br)cc2)cs1
> 80 µM (inactive)	CC(NCC(O)COCCC12CC3CC(CC(C3)C1)C2)c1ccccc1 (configuration not stated)
28.7 µM (inactive)	O=[N+]([O-])c1cccc(/C=C/c2ccc3cccc(O)c3n2)c1
> 80 µM (inactive)	CCOC(=O)c1c(NC(C)=O)sc2c(OCC(O)CNC(C)(C)C)c(Br)ccc12 (configuration not stated)
> 80 µM (inactive)	COc1cc(NC(=O)c2cccs2)ccc1NC(=O)c1cc2ccccc2o1
> 80 µM (inactive)	Cc1cc(NC(=O)CSc2nc3sc(C)c(C)c3c(=O)n2C2CCCC2)no1
> 80 µM (inactive)	CC(C)CC(NC(=O)c1ccc(Cl)cc1)C(=O)OCC(=O)c1ccc2c(c1)NC(=O)CO2 (configuration not stated)
> 80 µM (inactive)	CCOC(=O)C1=C(C)N=C2c3ccccc3C(=O)C2C1c1ccc(C)cc1 (configuration not stated)
34.4 µM (inactive)	Cc1ccc(NC(=O)COc2ccc(/C=C3/SC(=Nc4ccccc4)N(Cc4cccnc4)C3=O)cc2)cc1
48.4 µM (inactive)	Cc1ccc(NC(=O)c2c(C)nc3sc(C(=O)NC4CCCC4)c(N)c3c2-c2ccco2)c(C)c1
54.1 µM (inactive)	CCOC(=O)/C=c1\s/c(=C\c2ccc3cc(OC)ccc3c2)c(=O)n1CC(=O)NCC1CCCO1 (configuration not stated)
> 80 µM (inactive)	C[C@@H]1C[C@H]2[C@@H]3CCC4=CC(=O)C=C[C@]4(C)[C@@]3(Cl)[C@@H](O)C[C@]2(C)[C@@]1(OC(=O)c1ccco1)C(=O)CCl
> 80 µM (inactive)	Cc1cccc(N2CCN(C(=S)Nc3ccc4nc(N5CCN(C)CC5)cc(C)c4c3)CC2C)c1 (configuration not stated)
> 80 µM (inactive)	N=c1n(CC(=O)c2ccc([N+](=O)[O-])cc2)c2ccccc2n1Cc1ccc(Cl)cc1
> 80 µM (inactive)	Cc1[nH]c2ccccc2c1/C=C/c1nc2ccccc2c(=O)n1-c1ccc([N+](=O)[O-])cc1

EC50	Compound
> 80 µM (inactive)	Cn1ncc(N=Cc2c(O)ccc3ccccc23)c1C(=O)Nc1cccc(Cl)c1
> 80 µM (inactive)	N#CCC(=O)N/N=C/c1cn(Cc2cccc3ccccc23)c2ccccc12
38.1 µM (inactive)	Cn1c2ccccc2c2cc(/C=N/NC(=O)c3cc(O)ccc3O)ccc21
> 80 µM (inactive)	O=C(NCC1CC1)c1cccc2c1C(=O)c1ccc(-c3ccc(OC(F)(F)F)cc3)cc1S2(=O)=O
> 80 µM (inactive)	COc1cccc2sc(N3CCN(c4nc5ccccc5s4)CC3)nc12
> 80 µM (inactive)	COc1ccc(-c2cc(C(F)F)n3ncc(C(=O)Nc4ccc(C(=O)N5CCOCC5)cc4)c3n2)cc1
> 80 µM (inactive)	CCOc1ccc(NC(=S)NC(=O)/C=C/c2ccc(C)cc2)c([N+](=O)[O-])c1
> 80 µM (inactive)	COc1ccc([N+](=O)[O-])cc1COc1ccc2c(-c3ccccc3)cc(=O)oc2c1
> 80 µM (inactive)	O=C(C[C@H]1C[C@H](C(=O)N2CCCCC2)[C@@]2(CCc3ccccc3)c3[nH]c4ccc(Cl)cc4c3CCN2C1=O)NCCC1=CCCCC1
> 80 µM (inactive)	Cc1ccc2nc(-c3ccc(NC(=S)NC4CC(C)(C)NC(C)(C)C4)cc3)sc2c1
18.2 µM	CCOC(=O)c1ccc(-c2ccc(/C=N/NC(=O)CN(c3cccc(C)c3)S(C)(=O)=O)o2)cc1
> 80 µM (inactive)	O=[N+]([O-])c1cc(-c2ccc(/C=N/c3nc4ccccn4c3-c3ccco3)o2)ccc1Cl
> 80 µM (inactive)	CC1CCCN(c2ccc(C(=O)NCc3cccs3)cn2)C1 (configuration not stated)
> 80 µM (inactive)	O=C(Nc1nc(-c2ccc3ccccc3c2)cs1)c1ccc(N2C(=O)CCC2=O)cc1
> 80 µM (inactive)	CCOC(=O)c1c(-c2ccc(C)o2)csc1NC(=O)COC(=O)c1ccc(NC(N)=O)cc1
> 80 µM (inactive)	CCOC(=O)c1c(NC(=O)c2cc(C)on2)c2cc([N+](=O)[O-])ccc2n1C
> 80 µM (inactive)	O=C(COc1ccc(/C=N/NC(=O)c2cc3ccccc3o2)cc1Br)Nc1ccccc1
25.7 µM (inactive)	COc1ccccc1NC(=O)c1cc2c(CO)cnc(C)c2oc1=Nc1ccccc1
19.9 µM	C/C(=N/Nc1cc(-c2ccccc2)nc(-c2ccccc2)n1)c1ccc(O)cc1
> 80 µM (inactive)	O=C(COc1ccc(Cl)cc1Cl)NN=C1c2ccccc2-c2ccccc21
> 80 µM (inactive)	N#Cc1ccc(N/N=C/c2cn(-c3ccccc3)nc2-c2ccccc2)c([N+](=O)[O-])c1
12.1 µM	COc1cc([C@H]2c3[nH]c4ccccc4c3C[C@H]3C(=O)N4[C@@H](c5cc(OC)c(OC)c(OC)c5)c5[nH]c6ccccc6c5C[C@H]4C(=O)N23)cc(OC)c1OC

EC50	Compound
> 80 µM (inactive)	CC(C)N(C(=O)[C@H]1C[C@H](CC(=O)NCc2cccc(C(F)(F)F)c2)C(=O)N2CCc3c([nH]c4ccc(Cl)cc34)[C@]12C)C(C)C
> 80 µM (inactive)	CCOc1cc(/C=N/NC(N)=S)cc(Br)c1OCc1ccccc1C
> 80 µM (inactive)	Cc1cccc2c1Sc1ccc(Cl)cc1CC2N1CCNCC1 (configuration not stated)
> 80 µM (inactive)	COc1ccc(OC)c(-c2nnc3n2N=C(c2ccc(OC)c(OCC4CC4)c2)CS3)c1
> 80 µM (inactive)	COc1cc2nc(N3CCN(c4cc(C)ccc4C)CC3)nc(N)c2cc1OC
> 80 µM (inactive)	Cc1cc(SCC(=O)c2ccc(O)c(O)c2)n2nc(C)c(-c3ccccc3)c2n1
> 80 µM (inactive)	COc1ccc(-c2nc3scc(-c4ccc(OC)c(OC)c4)c3c(=O)o2)cc1
> 80 µM (inactive)	CCCNC(=O)c1c(N)n(-c2ccc3c(c2)OCO3)c2nc3ccccc3nc12
11.6 µM	CCOc1ccccc1N=Cc1c(O)c2ccccc2oc1=O
21.8 µM (inactive)	CCOC(=O)c1c(NC(=O)CSc2nnc3c(n2)[nH]c2ccc(F)cc23)sc(C(C)=O)c1C
37.1 µM (inactive)	Cc1ccc(C)c(N=Cc2c(O)c3ccccc3oc2=O)c1
20 µM	O=C(C[C@H]1C/C=C\C[C@@H](NC(=O)OCC2c3ccccc3-c3ccccc32)C(=O)O[C@@H](c2ccccc2)CNC1=O)N[C@H](CO)Cc1ccccc1
> 80 µM (inactive)	CC1CCN(Cc2c(C(=O)N/N=C/c3ccc(C(C)(C)C)cc3)nnn2-c2nonc2N)CC1
> 80 µM (inactive)	COc1ccc(Cn2c(SCc3cc(C)ccc3C)nc3cc(OC)c(OC)cc3c2=N)cc1
> 80 µM (inactive)	OC(CNCC1CCCO1)Cn1c2ccc(Br)cc2c2cc(Br)ccc21 (configuration not stated)
> 80 µM (inactive)	NC(=O)CC(NC(=O)Cc1cccc2ccccc12)c1ccc(NCCOc2ccccc2)c([N+](=O)[O-])c1 (configuration not stated)
> 80 µM (inactive)	COc1ccc(NC(=O)CSc2nc3ccc(Nc4nc(N5CCOCC5)nc(N5CCOCC5)n4)cc3s2)cc1
> 80 µM (inactive)	CCCCC1CCC(C(=O)N(CC(C)C)c2c(N)n(CCCC)c(=O)[nH]c2=O)CC1 (configuration not stated)
> 80 µM (inactive)	N#Cc1cnn2c1nc(N1CCCCC1)c1ccccc12
> 80 µM (inactive)	Cc1cccnc1Nc1nc(-c2ccc(O)c(O)c2)cs1
> 80 µM (inactive)	COc1ccc(/C=N/NC(=O)c2cccc([N+](=O)[O-])c2)c2ccccc12
> 80 µM (inactive)	CCOc1ccc(Cn2c3ccc(OC)cc3c3nc4ccccc4nc32)cc1OC

EC50	Compound
> 80 µM (inactive)	CCOC(=O)c1c(NC(=O)CNC2CCCc3ccccc32)sc(C(N)=O)c1C (configuration not stated)
> 80 µM (inactive)	O=C(Cc1ccccc1)c1c[nH]c(C(=O)C(Cl)(Cl)Cl)c1
27.3 µM (inactive)	C/C(CCC12CC3CC(CC(C3)C1)C2)=N\NC(N)=S
13.2 µM	COc1ccc(-c2csc(NC(=S)NC(=O)/C=C/c3ccccc3)n2)cc1Br
20 µM	CCOc1cc(CNC(C)(C)CO)cc(Br)c1OCc1ccc(Cl)cc1Cl
> 80 µM (inactive)	COc1cc(/C=N/NC(N)=O)c(Br)cc1OCC(=O)Nc1ccccc1C
44.8 µM (inactive)	Cc1ccc(C(=O)Cn2c(C(=O)/C=C/c3ccccc3)nc3ccccc32)cc1
39.9 µM (inactive)	CCc1ccc2[nH]c3nc(SCc4nnc(-c5ccc(C)cc5)o4)nnc3c2c1
> 80 µM (inactive)	C/C(=N/NC(=O)c1ccc(Cl)s1)c1ccc(NC(=O)COc2ccc(Cl)cc2)cc1
> 80 µM (inactive)	COc1ccccc1-c1sc2cc3c(cc2c1-c1ccc(OCCN2CCCCC2)cc1)OCO3
> 80 µM (inactive)	Cc1ccc(N=Cc2c(O)n(-c3ccc4c(c3)OCO4)c(=O)c3ccccc23)cc1
> 80 µM (inactive)	CCc1cccc(CC)c1NC(=O)/C(C#N)=C/c1ccccc1C(F)(F)F
> 80 µM (inactive)	CC1=C(/C=C/C(C)=C/C=C/C(C)=C/C(=O)Nc2ccc(O)cc2)C(C)(C)CCC1
> 80 µM (inactive)	CC1CCC(C(C)C)C(OC(=O)Cn2c(-c3ccc(Cl)cc3)[n+](C)c3ccccc32)C1 (configuration not stated)
> 80 µM (inactive)	Cc1ccc(Cn2c(SCC(=O)Nc3cc(C)on3)nc3ccccc3c2=O)cc1
28.6 µM (inactive)	COc1ccc(-c2cc(C(F)F)n3ncc(C(=O)N4CCc5ccccc5C4)c3n2)cc1
> 80 µM (inactive)	Cn1nnnc1Sc1ncnc2scc(-c3ccc(Br)cc3)c12
> 80 µM (inactive)	NCCOc1ccc(C23CC4CC(CC(C4)C2)C3)cc1
> 80 µM (inactive)	COC(=O)c1cc([N+](=O)[O-])c(-n2ccnc2)c([N+](=O)[O-])c1
10.1 µM	Cc1ccc(F)cc1N=Cc1c(O)c2ccccc2oc1=O

Compound	EC50
C=C(C)[C@@]12OC3(c4ccccc4)O[C@@H]1C1[C@@H]4O[C@]4(CO)[C@@H](O)[C@]4(O)C(=O)C(C)=C[C@H]4[C@@]1(O3)[C@H](C)[C@H]2OC(=O)/C=C/C=C/c1ccccc1 (some centres not stated)	39.1 µM (inactive)
